Values of other authors as cited in patent publication US20110252579A1, “METHOD FOR TREATING FABRICS” (priority 2010, published 2011).
Where a name gives a salt, the structure may show the parent alone.

Tested on: bacteria
Conditions: not given

| SMILES | antimicrobial spectrum |
| --- | --- |
| CC1(C)C(=O)N(CO)C(=O)N1CO [DMDM hydantoin, 1,3-bis(hydroxymethyl)-5,5-dimethyl-2,4-imidazolidinedione] | mainly effective on bacteria |

Tested on: typical Gram negative and positive bacteria, fungi and yeasts
Conditions: level from about 0.001% to about 0.5% by weight of the usage composition

| SMILES | effectiveness against Gram negative and positive bacteria, fungi and yeasts |
| --- | --- |
| O=c1[nH]sc2ccccc12 [Proxel, 1,2-benzisothiazolin-3-one] | effective |
| Cn1sc2c(c1=O)CCC2 [Promexal, 2-methyl-4,5-trimethylene-4-isothiazolin-3-one] | effective |

Tested on: not given
Conditions: in water

| SMILES | water solubility |
| --- | --- |
| CC(C)(O)C(Cl)(Cl)Cl [chlorobutanol, 1,1,1-Trichloro-2-methylpropan-2-ol] | about 0.8% |
| CC1(C)C(=O)N(CO)C(=O)N1CO [DMDM hydantoin, 1,3-bis(hydroxymethyl)-5,5-dimethyl-2,4-imidazolidinedione] | more than 50% |
| [H]/N=C(\N/C(=N/[H])NCCCCCCNC(=N)NC(=N)Nc1ccc(Cl)cc1)Nc1ccc(Cl)cc1 [chlorhexidine diacetate salt, 1,1′-hexamethylene bis(5-(p-chlorophenyl)biguanide), reference compound] | about 1.8% |
| O=[N+]([O-])C1(Br)COCOC1 [Bronidox L, 5-bromo-5-nitro-1,3-dioxane] | about 0.46% |
| [Na+].[O-][n+]1ccccc1[S-] [sodium pyrithione] | about 50% |

Second part, the compound after the results:

| water solubility | SMILES |
| --- | --- |
| about 4% | OCc1ccccc1 [benzyl alcohol] |
| about 2.67% | OCCOc1ccccc1 [2-phenoxyethanol] |
| about 25% | O=[N+]([O-])C(Br)(CO)CO [Bronopol, 2-bromo-2-nitropropane-1,3-diol] |
| about 2% | OCCc1ccccc1 [2-phenylethanol] |
| about 70% | [H]/N=C(\N/C(=N/[H])NCCCCCCNC(=N)NC(=N)Nc1ccc(Cl)cc1)Nc1ccc(Cl)cc1 [chlorhexidine digluconate salt, 1,1′-hexamethylene bis(5-(p-chlorophenyl)biguanide), reference compound] |
